In article PMC4159296, “Antibodies to the Extracellular Pore Loop of TRPM8 Act as Antagonists of Channel Activation” (PLoS ONE, 2014):
“Also recorded” adds a separate entry of the source. Where two headings read alike, the source gives them in different places.

How the values were obtained:
Type in all cases: cell-based
human TRPM8 = target: T1, human TRPM8 (Homo sapiens, UniProt Q7Z2W7); test: agonist-induced 45Ca2+ uptake assay, CHO cells expressing human TRPM8; settings: for IC50: CHO cells, mean ± SD; for block of icilin-induced 45Ca2+ uptake, human TRPM8 in CHO cells: single concentration/volume, 30 µl antibody solution, stock concentrations not provided, Fig. 6A
T1 construct: expressed in transfected cells; host or cells: T-REx-CHO (Chinese hamster ovary), tetracycline-induced
T1 sequence (Q7Z2W7 whole entry): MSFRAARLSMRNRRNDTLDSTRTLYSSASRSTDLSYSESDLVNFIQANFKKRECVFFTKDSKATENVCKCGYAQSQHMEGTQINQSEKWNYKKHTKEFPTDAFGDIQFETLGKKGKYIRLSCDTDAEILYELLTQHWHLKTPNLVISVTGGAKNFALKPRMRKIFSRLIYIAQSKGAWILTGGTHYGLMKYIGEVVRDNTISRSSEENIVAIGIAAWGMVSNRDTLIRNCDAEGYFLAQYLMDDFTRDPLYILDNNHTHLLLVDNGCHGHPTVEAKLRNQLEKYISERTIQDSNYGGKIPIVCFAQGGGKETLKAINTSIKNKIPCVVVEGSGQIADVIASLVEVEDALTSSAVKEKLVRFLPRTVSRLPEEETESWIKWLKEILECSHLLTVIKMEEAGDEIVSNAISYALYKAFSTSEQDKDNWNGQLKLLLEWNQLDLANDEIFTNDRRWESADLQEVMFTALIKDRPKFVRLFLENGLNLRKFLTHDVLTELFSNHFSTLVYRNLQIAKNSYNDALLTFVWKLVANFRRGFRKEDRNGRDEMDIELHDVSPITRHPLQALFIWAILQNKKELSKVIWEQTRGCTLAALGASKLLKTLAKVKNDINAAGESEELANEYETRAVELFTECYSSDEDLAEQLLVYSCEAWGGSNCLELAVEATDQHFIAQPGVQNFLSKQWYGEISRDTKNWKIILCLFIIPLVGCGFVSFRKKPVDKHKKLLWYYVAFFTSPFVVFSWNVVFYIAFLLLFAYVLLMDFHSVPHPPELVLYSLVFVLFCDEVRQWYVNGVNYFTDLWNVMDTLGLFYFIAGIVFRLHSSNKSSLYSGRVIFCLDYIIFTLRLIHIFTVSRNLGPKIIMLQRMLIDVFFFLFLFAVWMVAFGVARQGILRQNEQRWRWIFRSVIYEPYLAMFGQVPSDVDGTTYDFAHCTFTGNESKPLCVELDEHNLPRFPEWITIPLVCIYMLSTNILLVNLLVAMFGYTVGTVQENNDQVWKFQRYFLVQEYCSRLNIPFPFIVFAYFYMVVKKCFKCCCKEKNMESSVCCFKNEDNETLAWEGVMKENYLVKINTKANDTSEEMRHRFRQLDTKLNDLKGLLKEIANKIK
Experimental: (§1) Complementary DNAs of recombinant human, rat and mouse TRPM8 were stably transfected into Tetracycline-Regulated Expression cell line, T-REx-Chinese hamster ovary cell line from Invitrogen, Inc. (Carlsbad, CA). Twenty four hours before the assay, cells were seeded in Cytostar-T 96-well plates at a density of 3.0×10^4 per well, and TRPM8 channel expression was induced with 0.5 µg/ml tetracycline. On the day of the assay, culture media were removed, and cells were incubated with TRPM8 antibody (ACC-049), antagonist M8-B, or control IgG for 30 min before addition of ^45Ca^2+. Stock solutions of ACC-049, M8-B, and control IgG were diluted to the desired final concentrations in the assay buffer (F-12 Ham's containing 15 mM HEPES and 0.1 mg/ml BSA) keeping the final concentration of DMSO lower than 0.5% for M8-B. The activity of TRPM8 was monitored as function of cellular uptake of radioactive calcium. The final concentration of ^45Ca^2+in the ^45Ca^2+ uptake assay was 10 µCi/ml. […] For cold activation of TRPM8, cold assay buffer at 10°C was used. ACC-049 was assayed in cells stably expressing human, rat, or mouse TRPM8 channels. The other commercial antibodies listed in Table 1 were assayed at a single concentration in 30 µl in icilin induced activation of human TRPM8 channels. The TRPM8 antagonist M8-B was used as a positive control and control IgG was used as a negative control in all assays. TRPM8 activation was calculated as percent of control (POC) with agonist (cold, icilin or menthol) induced radioactive calcium uptake set as 100 percent and assay buffer only plus ^45Ca^2+ set as zero percent with exception of cold activation, where blockade with M8-B at 1 µM was set as zero percent. Evaluation of antagonism at heat activation of TRPV1 [26], and noxious cold temperature activation of TRPA1 [24] was conducted as reported previously.
(§2) GraphPad Prism 5.0 (GraphPad Software, Inc., San Diego, CA) software was used to plot the data and to calculate the 50% inhibitory concentrations (IC50) of compounds and antibodies using a sigmoidal dose-response equation.

rat TRPM8 = target: T2, rat TRPM8 (Rattus norvegicus, UniProt Q8R455); test: agonist-induced 45Ca2+ uptake assay, CHO cells expressing rat TRPM8; settings: mean ± SD
T2 construct: expressed in transfected cells; host or cells: T-REx-CHO (Chinese hamster ovary), tetracycline-induced
T2 sequence (Q8R455 whole entry): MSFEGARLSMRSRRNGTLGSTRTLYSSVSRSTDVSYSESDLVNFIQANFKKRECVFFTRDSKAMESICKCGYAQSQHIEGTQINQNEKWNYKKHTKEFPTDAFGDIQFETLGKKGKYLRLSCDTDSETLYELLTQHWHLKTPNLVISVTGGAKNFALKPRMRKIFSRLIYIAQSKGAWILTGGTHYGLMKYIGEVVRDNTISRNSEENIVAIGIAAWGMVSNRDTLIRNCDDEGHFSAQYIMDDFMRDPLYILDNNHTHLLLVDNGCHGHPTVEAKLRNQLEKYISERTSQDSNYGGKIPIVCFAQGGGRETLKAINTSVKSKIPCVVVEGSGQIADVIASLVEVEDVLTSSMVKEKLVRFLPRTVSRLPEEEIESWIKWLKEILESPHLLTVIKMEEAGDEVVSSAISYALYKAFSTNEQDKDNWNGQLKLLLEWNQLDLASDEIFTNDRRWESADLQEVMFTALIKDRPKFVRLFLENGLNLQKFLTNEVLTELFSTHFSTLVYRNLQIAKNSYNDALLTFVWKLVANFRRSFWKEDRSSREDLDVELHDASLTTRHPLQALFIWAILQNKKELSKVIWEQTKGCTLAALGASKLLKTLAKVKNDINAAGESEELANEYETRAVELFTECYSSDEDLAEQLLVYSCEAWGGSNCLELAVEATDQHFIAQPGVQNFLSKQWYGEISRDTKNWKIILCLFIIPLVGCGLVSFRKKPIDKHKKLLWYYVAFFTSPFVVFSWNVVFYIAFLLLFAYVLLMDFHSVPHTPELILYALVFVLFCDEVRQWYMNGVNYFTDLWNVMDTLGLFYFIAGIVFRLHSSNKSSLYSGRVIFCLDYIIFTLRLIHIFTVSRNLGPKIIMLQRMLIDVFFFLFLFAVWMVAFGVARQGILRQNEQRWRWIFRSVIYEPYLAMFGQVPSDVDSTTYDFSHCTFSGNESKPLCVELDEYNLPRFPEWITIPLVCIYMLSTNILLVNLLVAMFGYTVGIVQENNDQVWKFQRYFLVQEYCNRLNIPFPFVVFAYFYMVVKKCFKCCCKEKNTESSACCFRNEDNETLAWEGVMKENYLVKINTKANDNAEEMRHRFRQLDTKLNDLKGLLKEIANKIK
Experimental: as §1, §2

mouse TRPM8 = target: T3, mouse TRPM8 (Mus musculus, UniProt Q8R4D5); test: agonist-induced 45Ca2+ uptake assay, CHO cells expressing mouse TRPM8; settings: mean ± SD
T3 construct: expressed in transfected cells; host or cells: T-REx-CHO (Chinese hamster ovary), tetracycline-induced
T3 sequence (Q8R4D5 whole entry): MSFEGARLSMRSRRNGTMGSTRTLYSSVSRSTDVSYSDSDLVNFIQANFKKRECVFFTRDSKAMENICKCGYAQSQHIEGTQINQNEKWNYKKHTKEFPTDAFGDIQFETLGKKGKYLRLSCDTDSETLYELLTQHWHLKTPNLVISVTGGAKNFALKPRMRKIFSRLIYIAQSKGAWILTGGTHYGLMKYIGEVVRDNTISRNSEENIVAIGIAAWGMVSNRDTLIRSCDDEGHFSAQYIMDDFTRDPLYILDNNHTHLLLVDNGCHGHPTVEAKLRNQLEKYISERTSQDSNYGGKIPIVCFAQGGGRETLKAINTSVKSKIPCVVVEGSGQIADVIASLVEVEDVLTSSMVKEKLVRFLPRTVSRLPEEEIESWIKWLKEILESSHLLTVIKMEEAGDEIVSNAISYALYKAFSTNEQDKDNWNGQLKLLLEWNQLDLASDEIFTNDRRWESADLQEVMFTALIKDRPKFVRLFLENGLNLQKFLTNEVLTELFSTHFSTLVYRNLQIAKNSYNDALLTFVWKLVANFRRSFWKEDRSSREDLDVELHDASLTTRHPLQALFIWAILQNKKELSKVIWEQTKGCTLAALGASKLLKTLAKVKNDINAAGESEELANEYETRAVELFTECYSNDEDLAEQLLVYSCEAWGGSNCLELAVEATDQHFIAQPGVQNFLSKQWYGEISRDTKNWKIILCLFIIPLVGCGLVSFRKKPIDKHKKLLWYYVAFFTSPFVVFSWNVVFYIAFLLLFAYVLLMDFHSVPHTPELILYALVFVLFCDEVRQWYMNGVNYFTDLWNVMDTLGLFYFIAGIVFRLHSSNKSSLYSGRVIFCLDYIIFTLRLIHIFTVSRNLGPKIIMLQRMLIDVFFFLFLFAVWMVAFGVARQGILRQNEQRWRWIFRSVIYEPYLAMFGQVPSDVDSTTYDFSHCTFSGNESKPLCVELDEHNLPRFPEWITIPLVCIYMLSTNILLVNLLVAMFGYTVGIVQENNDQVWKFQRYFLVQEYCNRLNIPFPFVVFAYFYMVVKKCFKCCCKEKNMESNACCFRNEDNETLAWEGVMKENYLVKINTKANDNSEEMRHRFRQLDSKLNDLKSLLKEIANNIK
Experimental: as §1, §2

[1] = target: T4, endogenous TRPM8 expressed in rat dorsal root ganglion neurons (Rattus norvegicus, UniProt Q8R455); test: icilin-induced 45Ca2+ uptake assay in freshly isolated rat DRG neurons; settings: 1 µM icilin; same single concentration/volume of antibodies; Fig. 6B
T4 construct: endogenous in cells; host or cells: primary dorsal root ganglion neurons from male Sprague Dawley rats
T4 sequence (Q8R455 whole entry): as the sequence (Q8R455 whole entry) above

human TRPA1 = human TRPA1 (Homo sapiens, UniProt O75762); test: noxious cold temperature activation of human TRPA1, 45Ca2+ uptake; settings: ACC-049 and control IgG 2.5 µM; peptide 10 µM; Fig. 2
human TRPA1, sequence (O75762 whole entry): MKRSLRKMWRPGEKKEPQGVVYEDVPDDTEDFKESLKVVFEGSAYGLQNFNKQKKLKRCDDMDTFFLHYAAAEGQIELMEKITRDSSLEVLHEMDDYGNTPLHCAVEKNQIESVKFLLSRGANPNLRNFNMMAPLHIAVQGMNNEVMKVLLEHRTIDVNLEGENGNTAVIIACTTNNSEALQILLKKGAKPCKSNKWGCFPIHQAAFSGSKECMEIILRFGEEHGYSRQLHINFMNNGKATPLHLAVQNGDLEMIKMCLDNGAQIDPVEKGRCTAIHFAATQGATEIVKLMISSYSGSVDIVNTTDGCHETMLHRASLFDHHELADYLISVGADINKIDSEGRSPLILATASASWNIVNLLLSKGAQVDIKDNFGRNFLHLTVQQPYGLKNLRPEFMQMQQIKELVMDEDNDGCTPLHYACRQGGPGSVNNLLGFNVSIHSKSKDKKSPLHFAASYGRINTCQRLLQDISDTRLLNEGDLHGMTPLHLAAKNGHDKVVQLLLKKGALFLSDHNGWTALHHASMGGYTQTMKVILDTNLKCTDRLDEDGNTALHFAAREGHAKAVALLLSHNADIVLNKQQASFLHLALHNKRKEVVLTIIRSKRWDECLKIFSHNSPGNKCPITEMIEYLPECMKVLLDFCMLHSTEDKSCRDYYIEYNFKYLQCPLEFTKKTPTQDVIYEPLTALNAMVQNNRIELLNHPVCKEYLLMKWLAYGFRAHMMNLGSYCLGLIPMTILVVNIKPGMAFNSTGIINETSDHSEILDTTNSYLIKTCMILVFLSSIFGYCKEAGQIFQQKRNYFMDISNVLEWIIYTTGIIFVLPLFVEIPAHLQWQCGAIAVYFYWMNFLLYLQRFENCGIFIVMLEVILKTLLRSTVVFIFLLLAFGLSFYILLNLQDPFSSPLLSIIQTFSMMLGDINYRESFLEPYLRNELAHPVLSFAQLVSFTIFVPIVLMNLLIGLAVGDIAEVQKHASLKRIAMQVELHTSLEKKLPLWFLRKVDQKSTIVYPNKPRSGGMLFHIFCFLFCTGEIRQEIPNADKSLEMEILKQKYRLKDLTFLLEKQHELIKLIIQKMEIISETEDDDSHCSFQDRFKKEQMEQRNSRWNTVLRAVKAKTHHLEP
Experimental: as §1, with “ACC-049 was assayed in cells stably expressing human, rat, or mouse TRPM8 channels. The other commercial antibodies listed in Table 1 were assayed at a single concentration in 30 µl in icilin induced activation of human TRPM8 channels. The TRPM8 antagonist M8-B was used as a positive control and control IgG was used as a negative control in all assays.” left out, “Evaluation of antagonism at heat activation of TRPV1 [26], and noxious cold temperature activation of TRPA1 [24] was conducted as reported previously.” left out

human TRPV1 = human TRPV1 (Homo sapiens, UniProt Q8NER1); test: heat activation of human TRPV1, 45Ca2+ uptake; settings: ACC-049 and control IgG 2.5 µM; peptide 10 µM; Fig. 2
Experimental: as §1, with “ACC-049 was assayed in cells stably expressing human, rat, or mouse TRPM8 channels. The other commercial antibodies listed in Table 1 were assayed at a single concentration in 30 µl in icilin induced activation of human TRPM8 channels. The TRPM8 antagonist M8-B was used as a positive control and control IgG was used as a negative control in all assays.” left out, “Evaluation of antagonism at heat activation of TRPV1 [26], and noxious cold temperature activation of TRPA1 [24] was conducted as reported previously.” left out

| Molecule | IC50 (human TRPM8; 1 µM icilin, triplicate wells, read-out: IC50, icilin induced human TRPM8 channel activation) [nM] | block of icilin-induced 45Ca2+ uptake, human TRPM8 in CHO cells (human TRPM8; 1 µM icilin) | IC50 (human TRPM8; 100 µM menthol, triplicate wells, read-out: IC50, menthol induced human TRPM8 channel activation) [nM] | IC50 (human TRPM8; cold 10°C, one experiment in triplicate wells, read-out: IC50, cold induced human TRPM8 channel activation) [nM] | IC50 (rat TRPM8; 1 µM icilin, triplicate wells, read-out: IC50, icilin induced rat TRPM8 channel activation) [nM] | IC50 (rat TRPM8; 100 µM menthol, triplicate wells, read-out: IC50, menthol induced rat TRPM8 channel activation) [nM] | IC50 (rat TRPM8; cold 10°C, one experiment in triplicate wells, read-out: IC50, cold induced rat TRPM8 channel activation) [nM] | IC50 (mouse TRPM8; 1 µM icilin, triplicate wells, read-out: IC50, icilin induced mouse TRPM8 channel activation) [nM] | IC50 (mouse TRPM8; 100 µM menthol, triplicate wells, read-out: IC50, menthol induced mouse TRPM8 channel activation) [nM] | IC50 (mouse TRPM8; cold 10°C, one experiment in triplicate wells, read-out: IC50, cold induced mouse TRPM8 channel activation) [nM] | block of icilin-induced 45Ca2+ uptake, rat DRG neurons [1] | blockade of cold activation of human TRPM8, single concentration (human TRPM8; ACC-049 and control IgG 2.5 µM, peptide 10 µM, cold, Fig. 2) | blockade of icilin activation of human TRPM8, single concentration (human TRPM8; ACC-049 and control IgG 2.5 µM, peptide 10 µM, icilin, Fig. 2) | effect on noxious cold temperature activation of human TRPA1, single concentration (human TRPA1) | effect on heat activation of human TRPV1, single concentration (human TRPV1) |
| --- | --- | --- | --- | --- | --- | --- | --- | --- | --- | --- | --- | --- | --- | --- | --- |
| COc1cc(CN(CCN)C(=O)c2cccs2)ccc1OCc1ccccc1 [M8-B] | 11 ± 1.2 | fully; also recorded: completely blocked | 1 ± 1.4 | 3 ± 1.1 | 11 ± 1.1 | 2 ± 1.3 | 2 ± 1.2 | 6 ± 1.1 | 2 ± 1.2 | 2 ± 1.2 | full inhibition | – | – | – | – |
| SDVD GTTYDFAHC (N-terminal SDVD) [peptide, cognate peptide of ACC-049, amino acid residues 917-929 of human TRPM8] | – | no effects | – | – | – | – | – | – | – | – | did not affect | no effects | no effects | no effects | no effects |
